# Laboratory results from ChEMBL document CHEMBL6127029, “Glutathione-dependent degradation of SMARCA2/4 for targeted lung cancer therapy with improved selectivity” (Eur J Med Chem, 2024).
# Calls of active or inactive are those of the source. No cut-off for these calls is given here.
# Assays:
# [1] = target: T1, von Hippel-Lindau disease tumor suppressor/SWI/SNF-related matrix-associated actin-dependent regulator of chromatin subfamily A member 2 (Homo sapiens) (UniProt P51531+P40337); test: PROTAC activity at VHL/SMARCA2 in human A549 cells assessed as induction of SMARCA2 degradation at 1 uM incubated for 24 hrs by Western blotting analysis; assay type: cell-based
# T1 sequence (P40337 whole entry, looked up): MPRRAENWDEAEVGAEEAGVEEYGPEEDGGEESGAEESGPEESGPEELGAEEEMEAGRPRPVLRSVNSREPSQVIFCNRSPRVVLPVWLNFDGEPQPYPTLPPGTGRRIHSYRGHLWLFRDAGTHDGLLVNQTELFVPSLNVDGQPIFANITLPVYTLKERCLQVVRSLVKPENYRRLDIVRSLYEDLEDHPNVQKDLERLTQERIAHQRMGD
# T1 sequence (P51531 whole entry, looked up): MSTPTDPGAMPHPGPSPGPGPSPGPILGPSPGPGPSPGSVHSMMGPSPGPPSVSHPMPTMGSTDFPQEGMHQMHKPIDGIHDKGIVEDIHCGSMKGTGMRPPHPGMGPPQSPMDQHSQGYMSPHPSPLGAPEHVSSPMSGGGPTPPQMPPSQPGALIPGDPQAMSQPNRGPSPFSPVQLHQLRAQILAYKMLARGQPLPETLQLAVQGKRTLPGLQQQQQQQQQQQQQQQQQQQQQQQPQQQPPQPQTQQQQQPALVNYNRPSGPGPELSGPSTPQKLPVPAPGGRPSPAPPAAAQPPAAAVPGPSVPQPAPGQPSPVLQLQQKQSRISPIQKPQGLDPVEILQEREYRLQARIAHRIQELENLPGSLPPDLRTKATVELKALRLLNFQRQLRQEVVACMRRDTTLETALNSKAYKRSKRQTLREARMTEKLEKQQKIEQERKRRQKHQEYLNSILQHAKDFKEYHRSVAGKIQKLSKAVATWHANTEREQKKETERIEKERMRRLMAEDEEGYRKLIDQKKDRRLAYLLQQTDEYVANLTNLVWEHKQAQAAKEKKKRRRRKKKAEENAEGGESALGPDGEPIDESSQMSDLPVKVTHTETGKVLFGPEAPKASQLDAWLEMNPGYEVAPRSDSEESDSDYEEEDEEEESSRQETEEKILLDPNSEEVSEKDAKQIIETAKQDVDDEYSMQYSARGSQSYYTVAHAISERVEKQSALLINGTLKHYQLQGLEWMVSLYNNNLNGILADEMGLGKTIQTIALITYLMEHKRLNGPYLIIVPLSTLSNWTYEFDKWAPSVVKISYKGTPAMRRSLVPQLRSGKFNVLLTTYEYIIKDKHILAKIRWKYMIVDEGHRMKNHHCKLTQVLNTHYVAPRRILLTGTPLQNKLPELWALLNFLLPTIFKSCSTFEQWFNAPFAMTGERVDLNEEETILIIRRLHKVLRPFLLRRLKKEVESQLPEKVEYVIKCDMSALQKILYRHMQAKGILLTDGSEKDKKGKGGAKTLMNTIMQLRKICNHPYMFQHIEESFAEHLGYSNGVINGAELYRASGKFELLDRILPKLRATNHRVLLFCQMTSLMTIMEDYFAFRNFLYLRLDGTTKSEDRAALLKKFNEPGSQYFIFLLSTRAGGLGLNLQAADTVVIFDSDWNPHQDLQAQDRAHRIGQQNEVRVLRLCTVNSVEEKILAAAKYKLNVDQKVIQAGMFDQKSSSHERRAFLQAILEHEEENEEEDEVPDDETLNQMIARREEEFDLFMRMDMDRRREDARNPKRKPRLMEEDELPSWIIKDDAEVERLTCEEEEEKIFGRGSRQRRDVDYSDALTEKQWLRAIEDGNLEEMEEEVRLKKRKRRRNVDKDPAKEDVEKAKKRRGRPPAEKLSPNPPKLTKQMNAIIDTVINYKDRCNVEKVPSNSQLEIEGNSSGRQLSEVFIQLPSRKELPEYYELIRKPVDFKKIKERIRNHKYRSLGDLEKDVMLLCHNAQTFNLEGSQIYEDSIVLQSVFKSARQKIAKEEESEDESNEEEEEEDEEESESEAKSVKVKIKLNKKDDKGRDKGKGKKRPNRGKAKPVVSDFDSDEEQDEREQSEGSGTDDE
# [2] = target: T1, von Hippel-Lindau disease tumor suppressor/SWI/SNF-related matrix-associated actin-dependent regulator of chromatin subfamily A member 2 (Homo sapiens); test: PROTAC activity at VHL/SMARCA2 in human HEK-293T cells assessed as induction of SMARCA2 degradation at 1 uM incubated for 24 hrs by Western blotting analysis relative to control; assay type: cell-based
# [3] = target: T2, von Hippel-Lindau disease tumor suppressor/SWI/SNF-related matrix-associated actin-dependent regulator of chromatin subfamily A member 4 (Homo sapiens) (UniProt P51532+P40337); test: PROTAC activity at VHL/SMARCA4 in human HEK-293T cells assessed as induction of SMARCA4 degradation at 1 uM incubated for 24 hrs by Western blotting analysis relative to control; assay type: cell-based
# T2 sequence (P40337 whole entry, looked up): as the sequence (P40337 whole entry, looked up) above
# T2 sequence (P51532 whole entry, looked up): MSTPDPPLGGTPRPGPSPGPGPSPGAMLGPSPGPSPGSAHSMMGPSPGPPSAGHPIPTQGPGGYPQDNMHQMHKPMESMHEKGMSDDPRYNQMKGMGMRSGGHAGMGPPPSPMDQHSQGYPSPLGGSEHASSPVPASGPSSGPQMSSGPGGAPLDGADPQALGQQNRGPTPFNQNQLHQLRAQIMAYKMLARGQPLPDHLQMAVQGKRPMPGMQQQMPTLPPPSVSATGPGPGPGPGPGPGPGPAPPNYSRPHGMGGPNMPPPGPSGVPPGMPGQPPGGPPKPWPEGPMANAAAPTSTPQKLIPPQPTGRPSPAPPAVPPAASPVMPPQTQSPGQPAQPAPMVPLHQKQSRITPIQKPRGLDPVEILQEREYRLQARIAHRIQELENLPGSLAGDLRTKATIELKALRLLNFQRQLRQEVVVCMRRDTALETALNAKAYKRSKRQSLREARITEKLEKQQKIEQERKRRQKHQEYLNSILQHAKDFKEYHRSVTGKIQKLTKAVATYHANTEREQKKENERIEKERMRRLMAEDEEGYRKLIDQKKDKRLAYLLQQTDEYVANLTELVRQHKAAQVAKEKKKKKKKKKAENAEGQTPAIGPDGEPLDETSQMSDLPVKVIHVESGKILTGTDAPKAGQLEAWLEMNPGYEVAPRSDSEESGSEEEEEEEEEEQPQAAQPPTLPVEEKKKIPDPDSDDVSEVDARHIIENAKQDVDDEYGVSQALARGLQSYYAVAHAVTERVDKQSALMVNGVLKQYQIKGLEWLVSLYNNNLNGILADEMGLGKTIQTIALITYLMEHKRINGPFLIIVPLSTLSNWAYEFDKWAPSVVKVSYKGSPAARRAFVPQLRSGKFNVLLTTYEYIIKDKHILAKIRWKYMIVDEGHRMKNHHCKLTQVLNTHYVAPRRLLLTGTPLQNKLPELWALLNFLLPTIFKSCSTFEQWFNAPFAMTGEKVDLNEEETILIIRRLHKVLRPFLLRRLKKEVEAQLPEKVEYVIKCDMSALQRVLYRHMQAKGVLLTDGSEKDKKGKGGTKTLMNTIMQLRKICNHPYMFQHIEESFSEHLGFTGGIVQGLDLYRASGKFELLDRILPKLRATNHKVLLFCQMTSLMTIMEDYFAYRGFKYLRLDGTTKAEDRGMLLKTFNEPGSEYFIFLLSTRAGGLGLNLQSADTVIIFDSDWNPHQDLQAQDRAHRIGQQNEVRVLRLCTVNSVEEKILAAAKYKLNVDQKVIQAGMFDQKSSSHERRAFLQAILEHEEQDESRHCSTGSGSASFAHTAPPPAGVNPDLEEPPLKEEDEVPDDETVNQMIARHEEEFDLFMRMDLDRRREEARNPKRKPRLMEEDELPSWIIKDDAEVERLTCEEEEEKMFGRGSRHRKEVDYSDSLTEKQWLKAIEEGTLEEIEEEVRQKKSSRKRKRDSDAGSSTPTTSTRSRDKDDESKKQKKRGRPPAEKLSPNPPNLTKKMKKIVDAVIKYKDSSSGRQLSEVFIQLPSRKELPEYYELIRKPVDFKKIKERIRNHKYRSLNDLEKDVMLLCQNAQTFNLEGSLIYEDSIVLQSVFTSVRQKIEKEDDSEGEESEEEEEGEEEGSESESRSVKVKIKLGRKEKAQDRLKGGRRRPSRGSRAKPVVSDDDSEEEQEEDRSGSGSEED
# [4] = target: T1, von Hippel-Lindau disease tumor suppressor/SWI/SNF-related matrix-associated actin-dependent regulator of chromatin subfamily A member 2 (Homo sapiens); test: PROTAC activity at VHL/SMARCA2 in human A549 cells assessed as induction of SMARCA2 degradation at 1 uM by Western blotting analysis; assay type: cell-based; conditions: TDE = time-dependent effect
# [5] = target: T1, von Hippel-Lindau disease tumor suppressor/SWI/SNF-related matrix-associated actin-dependent regulator of chromatin subfamily A member 2 (Homo sapiens); test: PROTAC activity at VHL/SMARCA2 in human NCI-H1299 cells assessed as induction of SMARCA2 degradation at 1 uM by Western blotting analysis; assay type: cell-based; conditions: TDE = time-dependent effect
# [6] = target: T1, von Hippel-Lindau disease tumor suppressor/SWI/SNF-related matrix-associated actin-dependent regulator of chromatin subfamily A member 2 (Homo sapiens); test: PROTAC activity at VHL/SMARCA2 in human A549 cells assessed as induction of SMARCA2 degradation at 1 uM incubated for 8 hrs in presence of GSH scavenger NEM by Western blotting analysis; assay type: cell-based
# [7] = target: T1, von Hippel-Lindau disease tumor suppressor/SWI/SNF-related matrix-associated actin-dependent regulator of chromatin subfamily A member 2 (Homo sapiens); test: PROTAC activity at VHL/SMARCA2 in human A549 cells assessed as induction of SMARCA2 degradation at 1 uM pretreated with MG132 followed by compound addition and measured after 8 hrs by Western blotting analysis; assay type: cell-based
# [8] = target: T1, von Hippel-Lindau disease tumor suppressor/SWI/SNF-related matrix-associated actin-dependent regulator of chromatin subfamily A member 2 (Homo sapiens); test: PROTAC activity at VHL/SMARCA2 in human A549 cells assessed as induction of SMARCA2 degradation at 1 uM pretreated with MLN4924 followed by compound addition and measured after 8 hrs by Western blotting analysis; assay type: cell-based
# [9] = target: T1, von Hippel-Lindau disease tumor suppressor/SWI/SNF-related matrix-associated actin-dependent regulator of chromatin subfamily A member 2 (Homo sapiens); test: PROTAC activity at VHL/SMARCA2 in human A549 cells assessed as induction of SMARCA2 degradation at 1 uM pretreated with 2-(4-(3-Amino-6-(2-hydroxyphenyl)pyridazin-4-yl)piperazin-1-yl) acetic acid trifluoroacetate followed by compound addition and measured after 8 hrs by Western blotting analysis; assay type: cell-based
# [10] = target: T1, von Hippel-Lindau disease tumor suppressor/SWI/SNF-related matrix-associated actin-dependent regulator of chromatin subfamily A member 2 (Homo sapiens); test: PROTAC activity at VHL/SMARCA2 in human A549 cells assessed as induction of SMARCA2 degradation at 1 uM pretreated with VHL-ligand followed by compound addition and measured after 8 hrs by Western blotting analysis; assay type: cell-based
# [11] = target: T1, von Hippel-Lindau disease tumor suppressor/SWI/SNF-related matrix-associated actin-dependent regulator of chromatin subfamily A member 2 (Homo sapiens); test: PROTAC activity at VHL/SMARCA2 in human 786-0 cells harboring mutated VHL assessed as induction of SMARCA2 degradation at 0.1 to 5 uM incubated for 8 hrs by Western blotting analysis; assay type: cell-based; conditions: dose 0.1-5 µM
# [12] = target: T2, von Hippel-Lindau disease tumor suppressor/SWI/SNF-related matrix-associated actin-dependent regulator of chromatin subfamily A member 4 (Homo sapiens); test: PROTAC activity at VHL/SMARCA4 in human 786-0 cells harboring mutated VHL assessed as induction of SMARCA4 degradation at 0.1 to 5 uM incubated for 8 hrs by Western blotting analysis; assay type: cell-based; conditions: dose 0.1-5 µM
# [13] = target: T1, von Hippel-Lindau disease tumor suppressor/SWI/SNF-related matrix-associated actin-dependent regulator of chromatin subfamily A member 2 (Homo sapiens); test: PROTAC activity at VHL/SMARCA2 in human NCI-H1299 cells harboring shRNA mediated VHL knockdown assessed as induction of SMARCA2 degradation at 0.1 to 2 uM incubated for 8 hrs by Western blotting analysis; assay type: cell-based; conditions: dose 0.1-2 µM
# [14] = target: T1, von Hippel-Lindau disease tumor suppressor/SWI/SNF-related matrix-associated actin-dependent regulator of chromatin subfamily A member 2 (Homo sapiens); test: PROTAC activity at VHL/SMARCA2 in human A549 cells harboring shRNA mediated VHL knockdown assessed as induction of SMARCA2 degradation at 0.1 to 2 uM incubated for 8 hrs by Western blotting analysis; assay type: cell-based; conditions: dose 0.1-2 µM
# [15] = test system: NCI-H1299; test: Cytotoxicity against human NCI-H1299 cells assessed as inhibition of cell growth incubated for 3 days by MTT assay; assay type: functional, cell-based; conditions: NCI-H1299, 72 h
# [16] = test system: A549; test: Cytotoxicity against human A549 cells assessed as inhibition of cell growth incubated for 3 days by MTT assay; assay type: functional, cell-based; conditions: A549, 72 h
# [17] = test system: A549; test: Inhibition of cell migration in human A549 cells at 10 uM incubated for 36 hrs by scratch wound healing based fluorescent microscopic analysis; assay type: functional
# [18] = test system: A549; test: Inhibition of colony formation in human A549 cells assessed as reduction in colony size at 0.8 to 20 uM incubated for 13 days by crystal violet staining based analysis; assay type: functional, cell-based; conditions: dose 0.8-20 µM, time 13.0 day
# [19] = test system: A549; test: Inhibition of colony formation in human A549 cells assessed as reduction in colony number at 0.8 to 20 uM incubated for 13 days by crystal violet staining based analysis; assay type: functional, cell-based; conditions: dose 0.8-20 µM, time 13.0 day
# [20] = test system: HuLEC-5a; test: Inhibition of colony formation in human HuLEC-5a cells assessed as reduction in colony size at 0.8 to 20 uM incubated for 13 days by crystal violet staining based analysis; assay type: functional, cell-based; conditions: dose 0.8-20 µM, time 13.0 day
# [21] = test system: HuLEC-5a; test: Inhibition of colony formation in human HuLEC-5a cells assessed as reduction in colony number at 0.8 to 20 uM incubated for 13 days by crystal violet staining based analysis; assay type: functional, cell-based; conditions: dose 0.8-20 µM, time 13.0 day
# [22] = test system: A549; test: Antitumor activity against human A549 cells xenografted in BALB/c mouse assessed as reduction in tumor size at 80 mg/kg,IT(Intratumoral) administrated every four days for 16 days; assay type: functional, organism-based; conditions: time 16.0 day
# [23] = test system: A549; test: Antitumor activity against human A549 cells xenografted in BALB/c mouse assessed as reduction in tumor volume at 80 mg/kg,IT(Intratumoral) administrated every four days for 16 days; assay type: functional, organism-based; conditions: time 16.0 day
# [24] = test system: A549; test: Antitumor activity against human A549 cells xenografted in BALB/c mouse assessed as reduction in tumor weight at 80 mg/kg,IT(Intratumoral) administrated every four days for 16 days; assay type: functional, organism-based; conditions: time 16.0 day
# [25] = Toxicity in BALB/c mouse xenografted with human A549 cells assessed as change in body weight at 80 mg/kg,IT(Intratumoral) administrated every four days for 16 days; assay type: organism-based; conditions: in vivo, other, 384 h, time 16 day
# [26] = test system: A549; test: Antitumor activity against human A549 cells xenografted in BALB/c mouse assessed as downregulation of SMARCA2 expression at 80 mg/kg,IT(Intratumoral) administrated every four days for 16 days by Western blotting analysis; assay type: functional, organism-based; conditions: time 16.0 day
# [27] = test system: A549; test: Antitumor activity against human A549 cells xenografted in BALB/c mouse assessed as upregulation of cleaved caspase-3 expression at 80 mg/kg,IT(Intratumoral) administrated every four days for 16 days by Western blotting analysis; assay type: functional, organism-based; conditions: time 16.0 day
# [28] = Toxicity in BALB/c mouse xenografted with human A549 cells assessed as morphological change in heart at 80 mg/kg,IT(Intratumoral) administrated every four days for 16 days by hematoxylin and eosin staining based microscopic analysis; assay type: organism-based; conditions: in vivo, other, 384 h, time 16 day
# [29] = Toxicity in BALB/c mouse xenografted with human A549 cells assessed as morphological change in liver at 80 mg/kg,IT(Intratumoral) administrated every four days for 16 days by hematoxylin and eosin staining based microscopic analysis; assay type: organism-based; conditions: in vivo, other, 384 h, time 16 day
# [30] = Toxicity in BALB/c mouse xenografted with human A549 cells assessed as morphological change in spleen at 80 mg/kg,IT(Intratumoral) administrated every four days for 16 days by hematoxylin and eosin staining based microscopic analysis; assay type: organism-based; conditions: in vivo, other, 384 h, time 16 day
# [31] = Toxicity in BALB/c mouse xenografted with human A549 cells assessed as morphological change in lung at 80 mg/kg,IT(Intratumoral) administrated every four days for 16 days by hematoxylin and eosin staining based microscopic analysis; assay type: organism-based; conditions: in vivo, other, 384 h, time 16 day
# [32] = Toxicity in BALB/c mouse xenografted with human A549 cells assessed as morphological change in kidney at 80 mg/kg,IT(Intratumoral) administrated every four days for 16 days by hematoxylin and eosin staining based microscopic analysis; assay type: organism-based; conditions: in vivo, other, 384 h, time 16 day
# [33] = test system: A549; test: Antitumor activity against human A549 cells xenografted in BALB/c mouse assessed as downregulation of SMARCA2 expression at 80 mg/kg,IT(Intratumoral) administrated every four days for 16 days by immunohistochemistry analysis; assay type: functional, organism-based; conditions: time 16.0 day
# [34] = test system: A549; test: Antitumor activity against human A549 cells xenografted in BALB/c mouse assessed as upregulation of cleaved caspase-3 expression at 80 mg/kg,IT(Intratumoral) administrated every four days for 16 days by immunohistochemistry analysis; assay type: functional, organism-based; conditions: time 16.0 day
# [35] = test system: A549; test: Antitumor activity against human A549 cells xenografted in BALB/c mouse assessed as upregulation of Ki67 expression at 80 mg/kg,IT(Intratumoral) administrated every four days for 16 days by immunohistochemistry analysis; assay type: functional, organism-based; conditions: time 16.0 day
# [36] = test system: A549; test: Antitumor activity against human A549 cells xenografted in BALB/c mouse assessed as upregulation of gamma-H2AX expression at 80 mg/kg,IT(Intratumoral) administrated every four days for 16 days by immunohistochemistry analysis; assay type: functional, organism-based; conditions: time 16.0 day
# [37] = Stability of the compound in cell culture medium containing 10% fetal bovine serum at 50 uM incubated for 72 hrs by HPLC analysis; assay type: physicochemical, cell-free; conditions: cattle
# [38] = Stability in mouse plasma at 10 uM incubated for 24 hrs by HPLC analysis; assay type: ADME, cell-free
smiles,measurement,setting,value
Cc1ncsc1-c1ccc(CNC(=O)[C@@H]2C[C@@H](O)CN2C(=O)[C@@H](NC(=O)CN2CCN(c3cc(-c4ccccc4OS(=O)(=O)c4ccc([N+](=O)[O-])cc4)nnc3N)CC2)C(C)(C)C)cc1,Activity,[1],Active
same,Activity,[2],inactive
same,Activity,[3],inactive
same,Activity,[4],Tde
same,Activity,[5],Tde
same,Activity,[6],inactive
same,Activity,[7],inactive
same,Activity,[8],inactive
same,Activity,[9],inactive
same,Activity,[10],inactive
same,Activity,[11],inactive
same,Activity,[12],inactive
same,Activity,[13],inactive
same,Activity,[14],inactive
same,IC50,[15],21.8 µM
same,IC50,[16],9.1 µM
same,inhibition,[17],Active
same,inhibition,[18],Active
same,inhibition,[19],Active
same,inhibition,[20],inactive
same,inhibition,[21],inactive
same,Activity,[22],Active
same,Activity,[23],Active
same,Activity,[24],Active
same,Activity,[25],Non-Toxic
same,Activity,[26],Active
same,Activity,[27],Active
same,Activity,[28],Non-Toxic
same,Activity,[29],Non-Toxic
same,Activity,[30],Non-Toxic
same,Activity,[31],Non-Toxic
same,Activity,[32],Non-Toxic
same,Activity,[33],Active
same,Activity,[34],Active
same,Activity,[35],Active
same,Activity,[36],Active
same,Stability,[37],Stable
same,Stability,[38],Stable
